Results: publication PMC11374673, “Discovery of isoquinoline sulfonamides as allosteric gyrase inhibitors with activity against fluoroquinolone-resistant bacteria” (Nature Chemistry, 2024)
Converted amounts (≈) assume the structure as drawn. Read-outs that look alike come from different tables or passages of the source. Blank lines part the entries; values can stand above or below the molecule they belong to.

What was measured:
[1] = tested on: E. coli W3110; assay: MIC by broth microdilution; format: cell-based, Escherichia coli; conditions: for antimicrobial activity: relative to parent compound
Method: (§1) MIC was determined by broth microdilution. Single-colony cultures were grown to exponential phase (OD600 of 0.5) aerobically at 37 °C. In case of strains from the Keio collection, 50 µg ml^−1 kanamycin was supplemented to the media to ascertain a homogeneous population. The bacterial suspensions were diluted 100-fold in CAMHB and 50 µl was added to a twofold serial dilution series of test compounds (50 µl per well) in polypropylene 96-well microtitre plates to reach a volume of 100 µl. The plates were sealed with breathable membranes and incubated overnight at 37 °C with constant shaking (600 r.p.m.).

[2] = tested on: K. pneumoniae ATCC 29665; assay: MIC by broth microdilution; format: cell-based, Klebsiella pneumoniae; conditions: read-out: MIC K. pneumoniae ATCC 29665
Method: as §1

[3] = tested on: E. coli BW25113; assay: Bacterial cytological profiling (BCP); format: cell-based, Escherichia coli; conditions: BCP; for DIC angularity: 2 h, AMP 12.5, RIF 12.5, TET 6.25, CIP 0.0625, LEI-801 6.25, LEI-800 6.25 µM, average ± SD of 3 replicates; for DAPI intensity / SYTOX Green intensity: standardized to DMSO control
Method: Overnight E. coli BW25113 cultures were diluted 1:100 in fresh LB medium in a 100 ml Erlenmeyer flask and incubated at 120 r.p.m. and 37 °C. When OD600 >0.2, the cultures were diluted to OD600 of 0.1 in fresh LB medium with a final volume of 200 µl in a 2 ml Eppendorf tube. The appropriate antibiotic or control treatment was applied and the samples were incubated at 200 r.p.m. and 30 °C for 2 h. Subsequently, 4,6-diamidino-2-phenylindole (DAPI) (2 µg ml^−1), FM4-64 (2 µg ml^−1) and SYTOX Green (0.5 µM) were added to reach the desired concentration and the samples were incubated a further 10 min. The samples were then centrifuged at 3,300g for 50 s and the pellets resuspended in half the original volume. From this suspension, 5 µl was spotted onto a 2.0% agarose pad for microscopy.
Microscopy was performed on a Zeiss Axio Observer Z1/7 inverted microscope.
For the qualitative assessment of the bacterial morphology, the acquired images were first pre-processed in ImageJ (v1.53m)[47]. Thereafter the brightness and contrast were adjusted to allow the clearest visual inspection of the particular phenotype. For the quantitative BCP, DIC images were first pre-processed and then a random forest classifier was trained with Illastik (v1.3.3)[48] to generate a segmented image. These binary masks were then combined together with the original DIC image and processed with the ImageJ plugin MicrobeJ (v 5.13l)[49]. MicrobeJ generated cell outlines and performed measurements on cell shape accordingly. The recorded cell outlines produced by MicrobeJ were exported and used as a guide to characterize the DNA shape within each bacterium using a custom-made ImageJ macro (Appendix II). DAPI and SYTOX Green intensity were measured on raw images in a similar manner. Then, by hand, polygons were drawn that excluded bacteria to determine background intensity. After background correction the intensity was standardized to the DMSO control within the same biological replicate. For PCA, the BCP assay was executed for three independently biological replicates. During each experiment, images were acquired until 24 or more bacteria in total had been observed. Following feature extraction for each replicate, principal component analysis was performed using GraphPad Prism (v9.0.0) using multiple variable analysis with standardized data. Principal components (PCs) were selected based on the per cent of total explained variance (minimum 80%).

[4] = Escherichia coli, W3110, WT, broth microdilution, read-out: MIC E. coli W3110
[5] = WT, broth microdilution, read-out: MIC E. coli W3110
[6] = Klebsiella pneumoniae, ATCC29665, broth microdilution
[7] = Escherichia coli, W3110, follow-up of the 12 library hits, read-out: MIC E. coli

Compound: CN(CCNS(=O)(=O)c1cccc2cnccc12)Cc1ccc(-c2cccnc2)cc1 [Compound 95]
MIC [1, 4]: > 50 µM
MIC [1, 5]: >50 µM
antimicrobial activity [1]: abolished all activity
MIC [2, 6]: 50 µM (≈ 21.6 µg/mL)

Compound: O=S(=O)(NCCNCc1ccc(-c2ccc(F)cc2)c(Cl)c1)c1cccc2cnccc12 [Compound 86]
MIC [1, 4]: 50 µM (≈ 23.5 µg/mL)
MIC [2, 6]: > 50 µM
MIC ([2]; broth microdilution): >50 µM

Compound: O=S(=O)(NCCNCc1ccc(-c2cccc(C(F)(F)F)c2)cc1)c1cccc2cnccc12 [Compound 69]
MIC [1, 4]: 25 µM (≈ 12.1 µg/mL)
MIC [2, 6]: > 50 µM
MIC ([2]; broth microdilution): >50 µM

Compound: Cc1cccc(-c2ccc(CNCCNS(=O)(=O)c3cccc4cnccc34)cc2)c1 [Compound 67]
MIC [1, 4]: > 50 µM
MIC [1, 5]: >50 µM
MIC [2, 6]: > 50 µM
MIC ([2]; broth microdilution): >50 µM

Compound: N#Cc1cccc(-c2ccc(CNCCNS(=O)(=O)c3cccc4cnccc34)cc2)c1 [Compound 68]
MIC [1, 4]: 12.5 µM (≈ 5.53 µg/mL)
MIC [2, 6]: 25 µM (≈ 11.1 µg/mL)

Compound: O=S(=O)(NCCNCc1ccc(-c2cccnc2)c(Cl)c1)c1cccc2cnccc12 [Compound 83]
MIC [1, 4]: > 50 µM
MIC [1, 5]: >50 µM
MIC [2, 6]: > 50 µM
MIC ([2]; broth microdilution): >50 µM

Compound: O=S(=O)(NCCNCc1ccc(-c2ccc3ccccc3c2)cc1)c1cccc2cnccc12 [Compound 76]
MIC [1, 4]: > 50 µM
MIC [1, 5]: >50 µM
MIC [2, 6]: > 50 µM
MIC ([2]; broth microdilution): >50 µM

Compound: O=S(=O)(NCCNCc1ccc(-c2cccnc2)cc1)c1cccc2[nH]ncc12 [Compound 49]
MIC [1, 4]: > 50 µM
MIC [1, 5]: >50 µM
MIC [2, 6]: > 50 µM
MIC ([2]; broth microdilution): >50 µM

Compound: O=S(=O)(NCCNCc1ccc(-c2cccnc2)cc1)c1ccccc1 [Compound 48]
MIC [1, 4]: > 50 µM
MIC [1, 5]: >50 µM
antimicrobial activity [1]: lost all activity
MIC [2, 6]: > 50 µM
MIC ([2]; broth microdilution): >50 µM

Compound: Cc1ccccc1-c1ccc(CNCCNS(=O)(=O)c2cccc3cnccc23)cc1 [Compound 71]
MIC [1, 4]: 12.5 µM (≈ 5.39 µg/mL)
MIC [2, 6]: 50 µM (≈ 21.6 µg/mL)

Compound: CO[C@H]1/C=C/O[C@@]2(C)Oc3c(C)c(O)c4c(O)c(c(/C=N/N5CCN(C)CC5)c(O)c4c3C2=O)NC(=O)/C(C)=C\C=C\[C@H](C)[C@H](O)[C@@H](C)[C@@H](O)[C@@H](C)[C@H](OC(C)=O)[C@@H]1C [RIF, rifampicin, reference compound]
DAPI circularity [3]: 0.637 ± 0.019
DAPI nucleoid area [3]: 4.992 ± 0.606
DAPI nucleoids [3]: 1.120 ± 0.069
DAPI perimeter [3]: 9.927 ± 0.636
DAPI roundness [3]: 0.408 ± 0.029
DAPI solidity [3]: 0.918 ± 0.003
DAPI total area [3]: 5.402 ± 0.548
DIC area [3]: 5.883 ± 0.716
DIC circularity [3]: 0.642 ± 0.053
DIC curvature [3]: 0.092 ± 0.018
DIC feret [3]: 4.608 ± 0.076
DIC length [3]: 4.635 ± 0.073
DIC roundness [3]: 0.370 ± 0.047
DIC sinuosity [3]: 1.017 ± 0.003
DIC solidity [3]: 0.956 ± 0.014
DIC width [3]: 1.327 ± 0.161
Decondensation [3]: 0.922 ± 0.075
DIC angularity [3]: 0.101 ± 0.016
DAPI intensity [3]: 0.704 ± 0.260
SYTOX Green intensity [3]: 2.120 ± 0.434

Compound: O=S(=O)(NCCNCc1ccc(-c2ccc(C(F)(F)F)cc2)cc1)c1cccc2cnccc12 [Compound 64]
MIC [1, 4]: > 50 µM
MIC [1, 5]: >50 µM
MIC [2, 6]: > 50 µM
MIC ([2]; broth microdilution): >50 µM

Compound: O=C(NCCNCc1ccc(-c2cccnc2)cc1)c1cccc2cnccc12 [Compound 91]
MIC [1, 4]: > 50 µM
MIC [1, 5]: >50 µM
antimicrobial activity [1]: loss of activity
MIC [2, 6]: > 50 µM
MIC ([2]; broth microdilution): >50 µM

Compound: O=S(=O)(NCCNCc1ccc(-c2ccc(F)cc2)c(F)c1)c1cccc2cnccc12 [Compound 90]
MIC [1, 4]: 12.5 µM (≈ 5.67 µg/mL)
MIC [2, 6]: 12.5 µM (≈ 5.67 µg/mL)

Compound: Nc1cc2c(S(=O)(=O)NCCNCc3ccc(-c4cccnc4)cc3)cccc2cn1 [Compound 55]
MIC [1, 4]: > 50 µM
MIC [1, 5]: >50 µM
MIC [2, 6]: > 50 µM
MIC ([2]; broth microdilution): >50 µM

Compound: O=S(=O)(NCCNCc1ccc(-c2ccc(F)nc2)nc1)c1cccc2cnccc12 [Compound 81]
MIC [1, 4]: > 50 µM
MIC [1, 5]: >50 µM
MIC [2, 6]: > 50 µM
MIC ([2]; broth microdilution): >50 µM

Compound: O=S(=O)(NCCNCc1ccc(-c2ccccc2Cl)cc1)c1cccc2cnccc12 [Compound 70]
MIC [1, 4]: 25 µM (≈ 11.3 µg/mL)
MIC [2, 6]: 50 µM (≈ 22.6 µg/mL)

Compound: CN(C)CCCN1c2ccccc2Sc2ccc(Cl)cc21 [MB053]
MIC ([1]; Escherichia coli, W3110, read-out: MIC E. coli): > 50 µM

Compound: O=C(NCCNS(=O)(=O)c1cccc2cnccc12)c1ccc(-c2cccnc2)cc1 [Compound 93]
MIC [1, 4]: > 50 µM
MIC [1, 5]: >50 µM
antimicrobial activity [1]: abolished all activity
MIC [2, 6]: > 50 µM
MIC ([2]; broth microdilution): >50 µM

Compound: O=S(=O)(NCCNCc1ccc(-c2cc(Cl)cc(Cl)c2)cc1)c1cccc2cnccc12 [Compound 75]
MIC [1, 4]: > 50 µM
MIC [1, 5]: >50 µM
MIC [2, 6]: > 50 µM
MIC ([2]; broth microdilution): >50 µM

Compound: O=S(=O)(NCCNCc1ccc(-c2ccc3c(c2)OCO3)cc1)c1cccc2cnccc12 [Compound 77]
MIC [1, 4]: > 50 µM
MIC [1, 5]: >50 µM
MIC [2, 6]: > 50 µM
MIC ([2]; broth microdilution): >50 µM

Compound: O=S(=O)(NCCNCc1ccc(-c2cccnc2)c(F)c1)c1cccc2cnccc12 [Compound 87]
MIC [1, 4]: 25 µM (≈ 10.9 µg/mL)
MIC [2, 6]: 50 µM (≈ 21.8 µg/mL)

Compound: O=S(=O)(NCCNCc1ccc(-c2ccc3c(c2)OCCO3)cc1)c1cccc2cnccc12 [Compound 78]
MIC [1, 4]: > 50 µM
MIC [1, 5]: >50 µM
MIC [2, 6]: > 50 µM
MIC ([2]; broth microdilution): >50 µM

Compound: O=S(=O)(NCCNC/C=C/c1ccccc1-c1ccc2c(c1)OCO2)c1cccc2cnccc12 [Compound 97i]
MIC [1, 7]: > 50 µM

Compound: CC1(C)S[C@@H]2[C@H](NC(=O)[C@H](N)c3ccccc3)C(=O)N2[C@H]1C(=O)O [AMP, ampicillin, reference compound]
DAPI circularity [3]: 0.173 ± 0.043
DAPI nucleoid area [3]: 9.445 ± 2.853
DAPI nucleoids [3]: 2.583 ± 0.910
DAPI perimeter [3]: 30.886 ± 6.792
DAPI roundness [3]: 0.108 ± 0.020
DAPI solidity [3]: 0.603 ± 0.036
DAPI total area [3]: 19.710 ± 4.300
DIC area [3]: 31.597 ± 3.284
DIC circularity [3]: 0.144 ± 0.015
DIC curvature [3]: 0.024 ± 0.004
DIC feret [3]: 26.883 ± 3.012
DIC length [3]: 27.774 ± 3.16
DIC perimeter [3]: 56.849 ± 6.297
DIC roundness [3]: 0.066 ± 0.008
DIC sinuosity [3]: 1.033 ± 0.002
DIC solidity [3]: 0.538 ± 0.044
DIC width [3]: 1.143 ± 0.051
Decondensation [3]: 0.619 ± 0.078
DIC angularity [3]: 0.069 ± 0.009
DAPI intensity [3]: 1.490 ± 0.410
SYTOX Green intensity [3]: 1.901 ± 0.246

Compound: Nc1ccc2c(N3CCC(COc4ccccn4)CC3)ncnc2n1 [AJ358]
MIC [1, 7]: > 50 µM

The remaining lines, values ahead:

MIC [1, 7]: > 50 µM
Compound: Nc1cc2c(S(=O)(=O)NCCNC/C=C/c3ccc(-c4cccnc4)cc3)cccc2cn1 [SG181]

MIC [1, 7]: > 50 µM
Compound: O=S(=O)(NCCNCCc1ccc(-c2cccnc2)cc1)c1cccc2cnccc12 [BB077]

MIC [1, 7]: > 50 µM
Compound: Nc1ccccc1S(=O)(=O)NCCNC/C=C/c1ccc(-c2cccnc2)cc1 [BB064]

MIC [1, 7]: > 50 µM
Compound: O=S(=O)(NCCNCCCc1ccc(-c2cccnc2)cc1)c1cccc2cnccc12 [SG145]

MIC [1, 7]: 25 µM (≈ 8.64 µg/mL)
Compound: Cc1ccc(S(=O)(=O)N[C@@H]2C(=O)c3cc(C)ccc3O[C@H]2C)cc1 [IMI1517570]

MIC [1, 7]: > 50 µM
Compound: O=S(=O)(NCCNC/C=C/c1ccc(-c2cccnc2)cc1)c1cccc2[nH]ncc12 [SG176]

MIC [1, 7]: > 50 µM
Compound: O=S(=O)(NCCNC/C=C/c1ccc(-c2cccnc2)cc1)c1ccc2[nH]ncc2c1 [SG170]

MIC [1, 7]: > 50 µM
Compound: O=S(=O)(NCCNC/C=C/c1ccc(-c2cccnc2)cc1)c1ccc2cn[nH]c2c1 [SG171]
